# In the NIST ThermoML archive (doi:10.1016/j.jct.2013.03.001):
# ± gives the expanded uncertainty stated by the source.
# What was measured:
# [1] = Crystal; DTA
# [2] = molar enthalpy of vaporization or sublimation; details: 298.15 K; Crystal; Static calorimetry
# [3] = Molar enthalpy of transition or fusion; details: Crystal; DSC
Normal melting temperature [1] [°C],molar enthalpy [2] [kJ/mol],Molar enthalpy of transition or fusion [3] [kJ/mol],Compound
128.46 ± 0.39,91.7 ± 1.3,18.4 ± 0.47,"O=c1cccc(Cl)[nH]1 [2(1H)-pyridinone, 6-chloro-]"
169.99 ± 0.41,89.2 ± 1.8,26.8 ± 0.62,Oc1cccnc1Cl [2-chloro-3-hydroxypyridine]
159.76 ± 0.41,99.5 ± 2,21.6 ± 0.58,Oc1cncc(Cl)c1 [3-chloro-5-hydroxypyridine]
